Experiment: gradient 5% acetonitrile 3 min, to 50% in 2 min, to 85% in 15 min, held 3 min, 100 µL/min
Settings: column: Zorbax Extend-C18 2.1 x 50 mm; eluents: water / acetonitrile, 0.1% formic acid
How it was run: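 Retention time was recorded from adduct peaks, which were picked computationally and each inspected manually. Pure standards ran in mixtures of ~100 molecules on HPLC coupled to a quadrupole time-of-flight mass spectrometer, in positive and negative ionization mode, through a Zorbax Extend-C18 column (2.1 × 50 mm, 1.8 μm) at 100 μL/min. Eluents were water and acetonitrile, each with 0.1% formic acid.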

Row | RP-LC retention time [s] | Structure (SMILES)
1 | 763 | Cc1nc2c(NC(=O)c3ccccn3)cccn2n1
2 | 823 | O=C(NCc1ccco1)c1ccc2c(c1)N(C(=O)c1ccc(F)cc1)CC2
3 | 705 | O=C(NC1CC1)c1cc(-c2ccc(F)cc2)n[nH]1
4 | 1080 | COc1ccccc1-c1nnc(-c2cc(S(=O)(=O)N3CCCCC3)ccc2Cl)o1
5 | 799 | Cc1cc(=O)n(CC(=O)N2CCN(c3ccc(F)cc3)CC2)c(N2CCc3ccccc3C2)n1
6 | 583 | COCCN1C(=O)[C@H]2CN(Cc3cccc4[nH]ccc34)C[C@H]2C1=O
7 | 685 | CCN(CC)S(=O)(=O)c1ccc2nc(N3CCN(Cc4ccc5c(c4)OCO5)CC3)cnc2c1
8 | 644 | O=C(CCSc1ccccc1)N1CCN(c2ccc(-c3ccccn3)nn2)CC1
9 | 690 | O=C(NCc1ccc(F)c(Cl)c1)c1cn2c(n1)COCC2
10 | 641 | COCC(=O)N(C1CCOCC1)C1CCN(S(=O)(=O)c2cccnc2)CC1
11 | 971 | Cc1[nH]c(C(=O)Nc2cccc(Br)c2)c(C)c1S(=O)(=O)N1CCCC1
12 | 621 | COC(=O)C1=C(CN2CCSCC2)NC(=O)NC1c1ccccc1Cl (stereo not drawn)
13 | 531 | CN1C(=O)[C@H]2CN(Cc3cccc(C#N)c3)C[C@H]2C1=O
14 | 1050 | COc1cc(F)c(F)c(Nc2ccc(I)cc2F)c1NS(=O)(=O)C1(C[C@H](O)CO)CC1
15 | 762 | CCc1nc2cc(N3CCCC(C(=O)NCC4CC4)C3)cnc2nc1CC (stereo not drawn)
16 | 1140 | CCOC(=O)c1noc2nc(C)nc(NC(C)c3ccccc3)c12 (stereo not drawn)
17 | 1030 | Cc1cccc(-c2noc(Cc3nnc(-c4ccccc4)o3)n2)c1
18 | 702 | CN1C(=O)COc2cc(-c3noc(C(=O)NCC4CCCO4)n3)ccc21 (stereo not drawn)
19 | 780 | Cc1c(C)c2cc3c(=O)ccoc3c(C)c2oc1=O

Row | RP-LC retention time [s] | Structure (SMILES)
20 | 1370 | O=S(=O)(c1ccc2c(c1)CCCC2)N1CCCC1c1nc(-c2ccc(Cl)cc2)no1 (stereo not drawn)
21 | 648 | Cn1c(=O)c(C(=O)N2CCCCC2)nc2cccnc21
22 | 587 | CCn1cc(C)c(C(=O)O)c1CC(=O)N1CCC(N2CCCCC2)CC1
23 | 602 | Cn1c(=O)n(C)c2cc(S(=O)(=O)N3CCN(c4ccccn4)CC3)c(Cl)cc21
24 | 801 | COc1ccc(NC(=O)N(C)CCc2noc(COc3ccc(F)cc3)n2)cc1OC
25 | 669 | COCCn1c(-c2ccccc2)cnc1SCC(=O)Nc1ccccc1
26 | 548 | CCNc1cc(N2CCC(CCC(=O)N3CCC(C)CC3)CC2)ncn1
27 | 688 | CC(C)N1C(=O)CSc2cnn(CC(=O)NC3CCCC3)c(=O)c21
28 | 623 | CCC1CCCCN1C(=O)c1cnc2nc(C)ccc2c1Nc1ccc2c(c1)OCO2 (stereo not drawn)
29 | 595 | COCCN1C(=O)[C@H]2CN(Cc3cc(OC)ccc3OC)C[C@H]2C1=O
30 | 1180 | CCCOc1nc2ccccc2nc1N1CCCC(C(=O)NC2CCCC2)C1 (stereo not drawn)
31 | 857 | CC1(C(=O)NCc2ccccc2)CCCN(C(=O)NC2CCCCC2)C1 (stereo not drawn)
32 | 652 | Cc1noc(C)c1CCNC(=O)c1cc(-c2cccnc2)nc2ccccc12
33 | 1020 | Cc1noc(C)c1-c1ccc(S(=O)(=O)N2CCCCCC2)cc1
34 | 657 | Cc1nc(-c2cn(C(C)C)c3ncccc23)sc1C(=O)NCc1cccnc1
35 | 994 | Cc1ccc(Nc2c(-c3c(F)cccc3Cl)nc3ccc(Cl)cn23)cc1
36 | 783 | CC(C)(C)NC(=O)c1ccc2nc(-c3ccccc3)cn2c1
37 | 570 | CNC(=O)c1cc(C)nc2c(C)cccc12

Row | Structure (SMILES) | RP-LC retention time [s]
38 | O=C(Cc1ccc(F)cc1)N1CCN(Cc2nc(C3CC3)cs2)CC1 | 610
